Measurements taken from patent publication US9139551B2, “Preparation of a new class of water-soluble ammonium 2,3-dihydroxy-5-((2R,3R)-3,5,7-trihydroxy-4-oxochroman-2-yl) phenolates and their biological activity of alcohol elimination” (priority 2014, dated 2015).
Marks after values point to notes of the source that are not given here.

Experiments:
Balb/C mice [1] = assay: Deintoxication test (agent 30 min before alcohol)
mice [2] = assay: Acute toxicity, intraperitoneal administration (mortality, LD50, body weight, dietary); type: in vivo; details: for Dead number: 20 mice; for Dead number / mortality: 7 days
Procedure: Acute Toxicity • Compounds PDHM/TDHM.
140 mice were divided into 7 groups (n=20), each group include 10 males and 10 females, they were treated with different concentrations of dosages and observed for 7 days. Specific experimental groups and experimental results were noted below. Note: Section 1-6 group compound are PDHM groups, and group 7 is a negative control group.
140 mice were divided into 7 groups (n=20), each group include 10 males and 10 females, they were treated with different concentrations of dosage and observed for 7 days. Note: Section 1-6 group compound are PDHM groups, and group 7 is a negative control group.

Balb/C mice [3] = assay: Climbing net test; type: in vivo; details: 2 mg/kg gavage 30 min before alcohol
Procedure: Climbing Net Test • Groups design and treatment before experiment are as the same as that in deintoxication test. […] 30 minutes later all mice administrated alcohol (liquid Erguotou, ethonol concentration was diluted to 30%) 0.2 mL/kg BW and placed on a vertical metal net and measured the time when mice climbed on net.

Balb/C mice [4] = assay: Anti-alcoholism test (agent 30 min after alcohol); type: in vivo
From the text: Anti-Alcoholism Tests • Groups design and treatment before experiment are as the same as that in Deintoxication test. […]

mice [5] = assay: Acute toxicity, intragastric administration (maximum tolerated dose)
Balb/C mice [6] = assay: Dose-effect relationship of TDHM (sleep time and climbing time); type: in vivo
Procedure: Assay the Dose-Effect Relationship of TDHM • Groups design and treatment before experiment are the same as that in Deintoxication test. 30 minutes before intragastric administration of alcohol, mice were gavaged with 0.5 mg/kg BW, 2.0 mg/kg BW, 8.0 mg/kg BW, 32 mg/kg BW, 64 mg/kg BW, 128 mg/kg BW TDHM respectively. Sleep time and climbing time were recorded.

Balb/C mice [7] = assay: Plasma EtOH concentration assay; type: in vivo; details: intragastric 2 mg/kg
Procedure: Plasma EtOH Concentration Assay. • Blood samples from the tail vein of mice at different time points (0, 15, 30, 45, 60, 90, 120, 240, 480 and 720 minutes) after EtOH (30% ethanol, 0.2 ml/kg bw) or TDHM (2 mg/kg bw), PDHM (2 mg/kg bw) or DHM (2 mg/kg bw) gavage were collected for plasma EtOH concentrations (plasma [EtOH]) assays. (“BW” or “bw”: body weight) • Briefly, the Balb/C mice were put into a restraint tube and the tail was warmed at 37° C. The tail vein at the tip of the tail was punched with a sharp blade. Approximately 0.2 ml venous blood was dropped to a capillary blood collection tube containing lithium heparin (Ram Scientific). Blood samples were centrifuged at 2500 rpm for 20 min. The supernatant was collected and stored at −80° C. until assay. The EtOH content of each blood sample was measured in duplicate along with EtOH standards using the alcohol oxidase reaction procedures (EnzyChrom™ Ethanol Acid Assay Kit, ECET-100) (Liang et al., 2007). The sample preparations were the same as described above.

[8] = 2 mg/kg gavage 30 min before 30% ethanol
[9] = 2 mg/kg gavage 30 min before 30% ethanol, 20 mice
[10] = agents intragastric 30 minutes before drinking
[11] = 2 mg/kg gavage 30 min after 30% ethanol
[12] = 2 mg/kg gavage 30 min after 30% ethanol, 20 mice
[13] = 8.0 mg/kg BW intragastric, drunk mice
[14] = TDHM 0.5 mg/kg gavage 30 min before alcohol
[15] = TDHM 2 mg/kg gavage 30 min before alcohol
[16] = TDHM 8 mg/kg gavage 30 min before alcohol
[17] = TDHM 32 mg/kg gavage 30 min before alcohol
[18] = TDHM 64 mg/kg gavage 30 min before alcohol
[19] = TDHM 128 mg/kg gavage 30 min before alcohol

## triethylammonium 2,3-dihydroxy-5-((2R,3R)-3,5,7-trihydroxy-4-oxochroman-2-yl)phenolate [TDHM]
Balb/C mice [1]; [8]
  Sleep time M ± SD: 69.29 ± 48.40 min
  Tolerance time M ± SD: 43.29 ± 23.44 min
Balb/C mice [1]; [9]
  Dead number: 0 piece
  Rate of drunk: 0%
Balb/C mice [1]; [10]
  holding time comparing with DHM: shorten
  tolerance time of righting reflex disappearing comparing with DHM: obviously prolonged
Mice [2]; TDHM 636 mg/kg i.p.
  Dead number: 0
  mortality: 0%
Mice [2]; TDHM 636 mg/kg i.p., D1
  average dietary of mice: 3.62 g
Mice [2]; TDHM 636 mg/kg i.p., D2
  average dietary of mice: 4.67 g
Mice [2]; TDHM 636 mg/kg i.p., D3
  average dietary of mice: 5.33 g
Mice [2]; TDHM 636 mg/kg i.p., D4
  average dietary of mice: 6.4 g
Mice [2]; TDHM 636 mg/kg i.p., D5
  average dietary of mice: 5.53 g
Mice [2]; TDHM 636 mg/kg i.p., D6
  average dietary of mice: 5.18 g
Mice [2]; TDHM 636 mg/kg i.p., D7
  average dietary of mice: 5.44 g
Mice [2]; TDHM 674.16 mg/kg i.p.
  Dead number: 4
  mortality: 20%
Mice [2]; TDHM 674.16 mg/kg i.p., D1
  average dietary of mice: 3.96 g
Mice [2]; TDHM 674.16 mg/kg i.p., D2
  average dietary of mice: 4.8 g
Mice [2]; TDHM 674.16 mg/kg i.p., D3
  average dietary of mice: 6.7 g
Mice [2]; TDHM 674.16 mg/kg i.p., D4
  average dietary of mice: 6.98 g
Mice [2]; TDHM 674.16 mg/kg i.p., D5
  average dietary of mice: 5.58 g
Mice [2]; TDHM 674.16 mg/kg i.p., D6
  average dietary of mice: 5.58 g
Mice [2]; TDHM 674.16 mg/kg i.p., D7
  average dietary of mice: 5.73 g
Mice [2]; TDHM 714.61 mg/kg i.p.
  Dead number: 4
  mortality: 20%
Mice [2]; TDHM 714.61 mg/kg i.p., D1
  average dietary of mice: 3.62 g
Mice [2]; TDHM 714.61 mg/kg i.p., D2
  average dietary of mice: 5.42 g
Mice [2]; TDHM 714.61 mg/kg i.p., D3
  average dietary of mice: 6.55 g
Mice [2]; TDHM 714.61 mg/kg i.p., D4
  average dietary of mice: 7.06 g
Mice [2]; TDHM 714.61 mg/kg i.p., D5
  average dietary of mice: 5.49 g
Mice [2]; TDHM 714.61 mg/kg i.p., D6
  average dietary of mice: 5.17 g
Mice [2]; TDHM 714.61 mg/kg i.p., D7
  average dietary of mice: 5.2 g
Mice [2]; TDHM 757.49 mg/kg i.p.
  Dead number: 8
  mortality: 40%
Mice [2]; TDHM 757.49 mg/kg i.p., D1
  average dietary of mice: 3.95 g
Mice [2]; TDHM 757.49 mg/kg i.p., D2
  average dietary of mice: 5.3 g
Mice [2]; TDHM 757.49 mg/kg i.p., D3
  average dietary of mice: 7.08 g
Mice [2]; TDHM 757.49 mg/kg i.p., D4
  average dietary of mice: 8.18 g
Mice [2]; TDHM 757.49 mg/kg i.p., D5
  average dietary of mice: 5.78 g
Mice [2]; TDHM 757.49 mg/kg i.p., D6
  average dietary of mice: 5.83 g
Mice [2]; TDHM 757.49 mg/kg i.p., D7
  average dietary of mice: 6.25 g
Mice [2]; TDHM 802.94 mg/kg i.p.
  Dead number: 18
  mortality: 90%
Mice [2]; TDHM 802.94 mg/kg i.p., D1
  average dietary of mice: 4.6 g
Mice [2]; TDHM 802.94 mg/kg i.p., D2
  average dietary of mice: 7.66 g
Mice [2]; TDHM 802.94 mg/kg i.p., D3
  average dietary of mice: 7.08 g
Mice [2]; TDHM 802.94 mg/kg i.p., D4
  average dietary of mice: 9.04 g
Mice [2]; TDHM 802.94 mg/kg i.p., D5
  average dietary of mice: 6.89 g
Mice [2]; TDHM 802.94 mg/kg i.p., D6
  average dietary of mice: 6.23 g
Mice [2]; TDHM 802.94 mg/kg i.p., D7
  average dietary of mice: 6.27 g
Mice [2]; TDHM 851.11 mg/kg i.p.
  Dead number: 20
  mortality: 100%
Mice [2]; TDHM 851.11 mg/kg i.p., D1
  average dietary of mice: 0 g
Mice [2]; TDHM 851.11 mg/kg i.p., D2
  average dietary of mice: 0 g
Mice [2]; TDHM 851.11 mg/kg i.p., D3
  average dietary of mice: 0 g
Mice [2]; TDHM 851.11 mg/kg i.p., D4
  average dietary of mice: 0 g
Mice [2]; TDHM 851.11 mg/kg i.p., D5
  average dietary of mice: 0 g
Mice [2]; TDHM 851.11 mg/kg i.p., D6
  average dietary of mice: 0 g
Mice [2]; TDHM 851.11 mg/kg i.p., D7
  average dietary of mice: 0 g
Mice [2]; mice
  effect on dietary and body weight: no significant effect
Mice [2]; mice, i.p., observed 7 days
  LD50: 748.69 mg/kg
Balb/C mice [3]
  climbing time vs normal control mice: significantly prolonged
Balb/C mice [3]; vertical metal net
  climbing: 471.5 ± 155.89 min
Balb/C mice [4]; [11]
  Sleep time M ± SD: 99.29 ± 19.23*^& min
  Tolerance time M ± SD: 26.28 ± 17.49 min
Balb/C mice [4]; [12]
  Dead number: 0 piece
  Rate of drunk: 0%
Balb/C mice [4]; 2 mg/kg gavage 30 min after alcohol
  sleep time in drunk mice comparing with DHM: remarkably shorten
Mice [5]; mice at MTD, end of 7-day observation
  pathological examination of stomach, liver, kidney: no obvious degeneration, necrosis and other changes
Mice [5]; mice of the toxicity experiments
  pathology changes in livers, kidneys, hearts and lungs: No degeneration and necrosis pathology changes
Mice [5]; mice, gavage three times a day, 7 days
  deaths during the observation period at MTD: No deaths
Balb/C mice [6]; [13]
  climbing time vs other concentrations of TDHM: longer
  sleep time vs other concentrations of TDHM: significantly shorter
Balb/C mice [6]; [14]
  Climbing time: 184.5 min
  Holding time: 147.2 min
Balb/C mice [6]; [15]
  Climbing time: 272.67 min
  Holding time: 151.00 min
Balb/C mice [6]; [16]
  Climbing time: 368.33 min
  Holding time: 104.5 min
Balb/C mice [6]; [17]
  Climbing time: 243.17 min
  Holding time: 106.67 min
Balb/C mice [6]; [18]
  Climbing time: 271.83 min
  Holding time: 84.33 min
Balb/C mice [6]; [19]
  Climbing time: 298.33 min
  Holding time: 93.5 min
Balb/C mice [7]
  blood alcohol concentration vs control group treated with saline: significantly decreased
  reduction of blood alcohol concentration compared with DHM: better beneficial effect than DHM
